# Legend:
# [1] = Residual propylene hydroformylation activity after heat treatment, Ligand F catalyst (Table 1)
# Experimental: A catalyst solution (100 milliliters) was generated in a six ounce Fisher Porter Bottle by dissolving 0.063 grams of rhodium dicarbonyl 2,4-pentanedionate, 0.8 grams of Ligand F, 20 grams of n-butyraldehyde, and 78.7 grams of tetraethylene glycol dimethyl ether, subsequently alternately evacuating and flushing with nitrogen; and finally adding 60 psi of CO:H2, and placing the bottles in a 100° C. oil bath for 1 hour.
# (§1) After closing the reactor, the system was again purged with nitrogen and place in an oil bath heated to 100° C. The hydroformylation reaction in each experiment was conducted at a total gas pressure of 160 psig. The target partial pressure of hydrogen, carbon monoxide, and propylene being about 45 psia, 45 psia, and 5 psia respectively, with the remainder being nitrogen. The flows of the feed gases (carbon monoxide, hydrogen, propylene, and nitrogen) were controlled individually with mass flow meters. The feed gases were dispersed into the precursor solution via stainless steel 7-micron filters used as spargers. The unreacted portion of the feed gases stripped out the product aldehydes. Each experiment was operated for 24 hours under the above conditions. The activity is defined as the observed reaction rate divided by the predicted reaction rate. The reaction rates are expressed in terms of gram moles per liter per hour.
# The same procedure as in Example 2 was followed with the exception that a slow stream of 1,2-propadiene was purged through the initially generated catalyst solution for 5 minutes. Excess was then removed by alternately evacuating and flushing with nitrogen. The resulting solution was heated at 125° C. as in Example 2, and 20 milliliters of the resulting solution was transferred to a glass reactor as in Example 2 and the activity determined.
# (§2) The same procedure as in Example 3 was followed except 2 milliliters of 1,3-butadiene was added to the generated catalyst and stirred for 5 minutes. Excess 1,3-butadiene was then removed by alternate evacuation and flushing with nitrogen. The resulting solution was heated at 125° C. as in Example 2, and 20 milliliters of the resulting solution was transferred to a glass reactor as in Example 2 and the activity determined.
# The same procedure as in Example 4 was followed with the exception that 50 milliliters of a catalyst solution generated as in Example 2 was treated with 0.5 milliliters of 2-methyl-1,3-butadiene (isoprene) in place of 1,3-butadiene.
# A catalyst solution (20 milliliters) was generated in a Fisher Porter Bottle as in Example 2 under 60 psi CO:H2 for 1 hour, then cooled to room temperature and treated with 0.5 milliliters of 1,3-butadiene. The solution was removed from the Fisher Bottle by hypodermic syringe and transferred to a 100 milliliter stirred stainless vessel and maintained at 140° C. under 15 psi nitrogen for 14 hours. The resulting solution was then transferred to the glass reactors as in Example 2, and the residual catalyst activity measured. […]
# The same procedure as in Example 8 was followed except allene was employed in place of 1,3-butadiene, and the resulting solution heated at 140° C. for 48 hours without removing excess allene.
# A 20 milliliter sample of freshly generated catalyst solution (prepared as in Example 2) was charged to the glass reactors and the activity measured.
# The same procedure as in Example 8 was followed except 0.4 grams of 1,3-cyclohexadiene was employed in place of 1,3-butadiene.
# [2] = Decomposition of free Ligand F and deactivated complex formation at 145° C. by HPLC (FIG. 3); assay type: physicochemical; conditions: nitrogen 80 psig, no diene
# Experimental: A catalyst solution (5 milliliters), 600 parts per million in rhodium and 0.8 weight percent in Ligand F generated as in Example 2 was charged to a 3 ounce Fisher Porter bottle and alternately flushed evacuated with nitrogen, then placed in a 145° C. oil bath under nitrogen (80 psig total pressure) and then monitored by HPLC at 1 and 3 hours for the Ligand F and deactivated complex concentrations. The free Ligand F concentration was 0.75, 0.57 and 0.37 weight percent at 0, 1 and 3 hours, respectively, while the deactivated complex concentration was 0.010, 0.57 and 0.89 weight percent at 0, 1 and 3 hours respectively.
# The same procedure as in Example 21 was followed except the catalyst solution was treated with 1 milliliter of 1,3-butadiene and then heated at 145° C. for 3 hours (45 psig total pressure). The free Ligand F concentration measured by HPLC (high pressure liquid chromatography) was 0.75, 0.66, and 0.62 weight percent at 0, 1 and 3 hours, respectively, while the deactivated complex concentration was 0.010, 0.012, and 0.05 weight percent at 0, 1 and 3 hours respectively.
# [3] = Propylene hydroformylation rate and colour of (TPP)3 Rh(CO)H catalyst after thermal treatment; conditions: for hydroformylation rate: control without butadiene, 100° C.; for color change of catalyst solution: control
# Experimental: TPP is triphenylphosphine. 15 grams of this bright yellow solution was charged to a Fisher Porter bottle under inert gas. To this solution was added 20 psi of butadiene with stirring. The pressure dropped as the butadiene dissolved into the solution. The reactor was repressured twice with butadiene (20 psig) and then the reaction was place under a total of 45 psig with nitrogen. The solution was heated to 120° C. for 15 minutes. […] At ambient temperature, the reaction was placed under vacuum for 4 hours to remove any excess butadiene.
# Since the solvent has a very high boiling point, the concentration of rhodium was assumed to have remained unchanged while under vacuum. Indeed, no change in volume was detected visually while under vacuum. 15.0 milliliters of the 275 parts per million solution was charged to a 100 milliliter autoclave.
# This example is a control for Example 23. 15 grams of the catalyst solution prepared in Example 23 was charged to a Fisher Porter bottle under inert gas. 45 psig of nitrogen was added to the reaction vessel, then the reaction was heated to 120° C. for 15 minutes. […] 15.0 milliliters of the 275 parts per million solution was charged to a 100 milliliter autoclave.
# A catalyst solution was prepared by adding 113 milligrams of (TPP)3 Rh(CO)H to 40.4 grams Filmer IBT® available from Union Carbide Corporation, Danbury, Conn., resulting in a rhodium concentration of 312 parts per million. At this point, the rhodium complex was a suspended in the solvent. Approximately 20 grams of this solution of (TPP)3 Rh(CO)H in tetraglyme was charged to a Fisher Porter bottle under inert gas. To this solution was added 30 psi of butadiene with stirring. The pressure dropped to 20 psig as the butadiene dissolved into the solution. The reactor was repressured twice with butadiene (30 psig) and then the pressure was adjusted to 60 psig with nitrogen. The solution was placed into 140° C. oil bath, which caused the reaction to become homogeneous within a minute. The reaction was maintained at 140° C. for 50 minutes. […] The reaction vessel was removed from the oil bath and the butadiene was vented from the reactor while the reaction was hot. After gas evolution ceased, the reaction vessel was placed carefully placed under dynamic vacuum until gas evolution had ceased for 10 minutes. The reaction was then placed under a slight positive pressure of nitrogen. […] 15.0 milliliters of the 284 parts per million solution was charged to a 100 milliliter autoclave.
# This example serves as a control for Example 25. Approximately 20 grams of the solution prepared in Example 25 was charged to a Fisher Porter bottle under inert gas. 60 psig of nitrogen was added to the reaction vessel, then the reaction was heated to 140° C. for approximately 110 minutes. […] This solution was place into and out of the oil bath at the same time as the solution in Example 25. After thermal treatment, 10 weight percent of triphenylphosphine was added to the reaction mixture. […] 15 milliliters of the 284 parts per million solution was charged to a 100 milliliter autoclave.
# [4] = Residual propylene hydroformylation activity after heat treatment, Ligand D catalyst (Table 1); conditions: fresh catalyst control, no heat treatment
# Experimental: as §1, with “About 20 milliliters of the solution was charged to a glass reactor via a syringe after purging the reactor with nitrogen (see Examples 14-20 below). After” for “After”
# as §2
# The same procedure as in Example 4 was followed except Ligand D (as identified herein) was employed in place of Ligand F. The results are given in Table 1.
# The same procedure as in Example 10 was followed except the fresh catalyst solution contained Ligand D in place of Ligand F. The results are given in Table 1.
# [5] = 125° C./24 hours, no excess diene
# [6] = 140° C./48 hours, excess diene present
# [7] = 125° C./50 hours, no excess diene
# [8] = 140° C./24 hours, excess diene present
compound,measurement,setting,value
"C=C=C [Allene, 1,2-propadiene]",% Activity,[1]; [5],101%
same,Final Rate,[1]; [5],2.22 gram moles per liter per hour
same,% Activity,[1]; [6],47.2%
same,Final Rate,[1]; [6],1.03 gram moles per liter per hour
CC(C)(C)c1cc(-c2cc(C(C)(C)C)cc(C(C)(C)C)c2Op2oc3ccccc3c3ccccc3o2)c(Op2oc3ccccc3c3ccccc3o2)c(C(C)(C)C)c1 [Ligand F],% Activity,[1]; [5],10.0%
same,Final Rate,[1]; [5],0.22 gram moles per liter per hour
same,Final Rate,"[1]; fresh catalyst control, no heat treatment",2.18 gram moles per liter per hour
same,deactivated complex concentration,[2]; 0 hours,0.010 weight percent
same,free Ligand F concentration,[2]; 0 hours,0.75 weight percent
same,deactivated complex concentration,[2]; 1 hour,0.57 weight percent
same,free Ligand F concentration,[2]; 1 hour,0.57 weight percent
same,deactivated complex concentration,[2]; 3 hours,0.89 weight percent
same,free Ligand F concentration,[2]; 3 hours,0.37 weight percent
"c1ccc(P(c2ccccc2)c2ccccc2)cc1 [triphenylphosphine, reference compound]",hydroformylation rate,"[3]; after 120° C. for 15 minutes under nitrogen, 275 ppm Rh, 115 psig",0.8 gmol/L-h
same,hydroformylation rate,"[3]; after 140° C. for approximately 110 minutes, 284 ppm Rh, 95 psig",0.3 gmol/L-h
same,color change of catalyst solution,[3]; 120° C. for 15 minutes under nitrogen,turn from bright yellow to dark brown
same,color change of catalyst solution,[3]; 140° C. for approximately 110 minutes under nitrogen,turn from bright yellow to dark brown
"C=CC(=C)C [Isoprene, 2-methyl-1,3-butadiene]",% Activity,[1]; [7],73.8%
same,Final Rate,[1]; [7],1.55 gram moles per liter per hour
"C1=CCCC=C1 [1,3-cyclohexadiene]",% Activity,[1]; [8],4.13%
same,Final Rate,[1]; [8],0.09 gram moles per liter per hour
"COc1cc(-c2cc(OC)cc(C(C)(C)C)c2Op2oc3ccccc3c3ccccc3o2)c(Op2oc3ccccc3c3ccccc3o2)c(C(C)(C)C)c1 [Ligand D, 6,6'-[[3,3'-bis(1,1-dimethylethyl)-5,5'-dimethoxy-[1,1' -biphenyl]-2,2'-diyl]bis(oxy)]bis-dibenzo[d,f][1,3,2]dioxaphosphepin]",Final Rate,[4],1.16 gram moles per liter per hour
